{
  "source": "patent US20030186816A1",
  "about": "“Herbicide combinations comprising specific sulfonylureas” (Bayer CropScience GmbH, priority 2002, published 2003)",
  "format_in_all_cases": "in vivo",
  "key": {"Winter wheat": {"system": "Winter wheat", "assay": "Crop damage in outdoor trials", "experimental": "(§1) Herbicidal Action (Outdoor Trials)\n(§2) The seeds or rhizome pieces of typical harmful plants were planted and grown under natural outdoor conditions. After the harmful plants had emerged, they were treated, as a rule at the 2- to 4-leaf stage, with various dosages of the compositions according to the invention at a water application rate of 100 to 400 l/ha (converted).\n(§3) After the treatment (approx. 4-6 weeks after application), the herbidical activity of the active compounds or active compound mixtures was scored visually by comparing the treated plots with the untreated control plots. Damage and development of all above-ground parts of the plants was recorded. Scoring was done on a percentage scale (100% action=all plants dead; 50% action=50% of the plants and green plant parts dead; 0% action=no discernible action=like control plot). The score figures of in each case 4 plots were averaged. The results are listed in the tables below, where the activity measured for the independent use of the active compounds (A+B) and C) is stated in brackets."}, "Veronic pericaria": {"system": "Veronic pericaria", "assay": "Herbicidal action (outdoor trials)", "settings": "150 g of AS/ha, scored approx. 4-6 weeks after application", "experimental": "as §1, §2, §3"}, "Papaver rhoeas": {"system": "Papaver rhoeas", "assay": "Herbicidal action (outdoor trials)", "settings": "scored approx. 4-6 weeks after application", "experimental": "as §1, §2, §3"}, "Summer wheat": {"system": "Summer wheat", "assay": "Crop damage in outdoor trials", "settings": "30 g of AS/ha, scored approx. 4-6 weeks after application", "experimental": "as §1, §2, §3"}, "Aspera spica venti": {"system": "Aspera spica venti", "assay": "Herbicidal action (outdoor trials)", "settings": "30 g of AS/ha, scored approx. 4-6 weeks after application", "experimental": "as §1, §2, §3"}, "Polygonum convolvulus": {"system": "Polygonum convolvulus", "assay": "Herbicidal action (outdoor trials)", "settings": "30 g of AS/ha, scored approx. 4-6 weeks after application", "experimental": "as §1, §2, §3"}, "Physalis spp.": {"system": "Physalis spp.", "assay": "Herbicidal action (outdoor trials)", "settings": "30 g of AS/ha, scored approx. 4-6 weeks after application", "experimental": "as §1, §2, §3"}, "Brassica naupus": {"system": "Brassica naupus", "assay": "Herbicidal action (outdoor trials)", "settings": "30 g of AS/ha, scored approx. 4-6 weeks after application", "experimental": "as §1, §2, §3"}, "Wheat": {"system": "Wheat", "assay": "Crop damage in outdoor trials", "settings": "750 g of AS/ha, scored approx. 4-6 weeks after application, trial with Avena ludoviciana", "experimental": "as §1, §2, §3"}, "Avena ludoviciana": {"system": "Avena ludoviciana", "assay": "Herbicidal action (outdoor trials)", "settings": "750 g of AS/ha, scored approx. 4-6 weeks after application", "experimental": "as §1, §2, §3"}},
  "data": [
    {"molecule": "Nc1c(Cl)c(F)nc(OCC(=O)O)c1Cl", "note": "[I), 4-amino-3,5-dichloro-6-fluoro-2-pyridyloxy acetic acid]", "values": [
      {"measurement": "Winter wheat % damage", "setting": "Winter wheat; in vivo", "value": 1, "unit": "%"},
      {"measurement": "Veronic pericaria % activity", "setting": "Veronic pericaria", "value": 50, "unit": "%"}
    ]},
    {"molecule": "N#Cc1cc(Br)c(O)c(Br)c1", "note": "[E), 3,5-dibromo-4-hydroxy-benzonitrile]", "values": [
      {"measurement": "Winter wheat % damage", "setting": "Winter wheat; 240 g of AS/ha, outdoor, scored approx. 4-6 weeks after application, trial with Papaver rhoeas", "value": 0, "unit": "%"},
      {"measurement": "Papaver rhoeas % activity", "setting": "Papaver rhoeas; 240 g of AS/ha", "value": 85, "unit": "%"}
    ]},
    {"molecule": "CCOC(=O)[C@@H](C)Oc1ccc(Oc2nc3ccc(Cl)cc3o2)cc1", "note": "[J), fenoxaprop-P-ethyl]", "values": [
      {"measurement": "Summer wheat % damage", "setting": "Summer wheat", "value": 0, "unit": "%"},
      {"measurement": "Aspera spica venti % activity", "setting": "Aspera spica venti", "value": 25, "unit": "%"},
      {"measurement": "Polygonum convolvulus % activity", "setting": "Polygonum convolvulus", "value": 0, "unit": "%"},
      {"measurement": "Physalis spp. % activity", "setting": "Physalis spp.", "value": 0, "unit": "%"},
      {"measurement": "Brassica naupus % activity", "setting": "Brassica naupus", "value": 0, "unit": "%"}
    ]},
    {"molecule": "COc1nc(C)nc(NC(=O)NS(=O)(=O)c2ccccc2OCCCl)n1", "note": "[D), 1-[2-(2-chloroethoxy)phenylsulfonyl]-3-(4-methoxy-6-methyl-1,3,5-triazin-2-yl)urea]", "values": [
      {"measurement": "Winter wheat % damage", "setting": "Winter wheat; 15 g of AS/ha, outdoor, scored approx. 4-6 weeks after application, trial with Papaver rhoeas", "value": 0, "unit": "%"},
      {"measurement": "Papaver rhoeas % activity", "setting": "Papaver rhoeas; 15 g of AS/ha", "value": 65, "unit": "%"}
    ]},
    {"molecule": "Cc1cc(Cl)ccc1OCC(=O)O", "note": "[C), (4-chloro-2-methylphenoxy)acetic acid]", "values": [
      {"measurement": "Wheat wheat % damage", "setting": "Wheat", "value": 0, "unit": "%"},
      {"measurement": "Avena ludoviciana % activity", "setting": "Avena ludoviciana", "value": 0, "unit": "%"}
    ]}
  ]
}
